Like-named read-outs stand apart in the source and are kept apart here.
Legend:
[1] = system: cap-dependent translation in Flp-In-293 reporter cells; experiment: Cellular cap-dependent translation inhibition assay (dual luciferase assay, DLA; Fluc/Rluc ratio, 24 hours); type: cell-based; conditions: dual luciferase assay, Flp-In-293 reporter cells, 24 hours, Fluc/Rluc ratio, read-out: DLA 205 IC50
[2] = system: cyclin D1 protein levels in COLO 205 cells; experiment: Cyclin D1 cellular inhibition assay (HTRF, 6 hours); type: cell-based; conditions: 6 hours of compound treatment, Cyclin D1 protein levels by HTRF, read-out: COLO 205 6 h Cyclin D1 TR-FRET IC50
In short: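 COLO 205 cells in RPMI-1640 with 10% FBS treated 6 h with 11-point compound dilutions at 1% DMSO final. Lysates assayed for cyclin D1 by HTRF. Signal normalized to DMSO and maximum-inhibition controls, with IC50 from 4-parameter fit.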

[3] = system: COLO 205 colorectal tumor cells; experiment: Tumor cell viability inhibition assay (CellTiter-Glo 2.0, 72 hours); type: cell-based; conditions: COLO 205 cell viability
In short: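 COLO 205 cells (1500/well, RPMI-1640 + 10% FBS) exposed for 72 h to an 11-point, 4-fold dilution series; cellular ATP read by CellTiter-Glo 2.0 luminescence. Data normalized to DMSO and maximum-inhibition controls; IC50 from 4-parameter curve fit.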

human eIF4E protein = target: T1, human eIF4E protein (Homo sapiens, UniProt P06730); experiment: Biochemical competitive binding assay (TR-FRET competition, EDA-m7GDP-ATTO-647N probe); conditions: read-out: hEIF4E TR-FRET IC50
T1 construct: purchased Novus NBP-45314
In short: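 His-tagged human eIF4E (4 nM) was preincubated with Eu-anti-His antibody (2.5 nM) and added to compound (11-point, 4-fold dilutions) for 15 min. Then 5 nM EDA-m7GDP-ATTO-647N was added for 15 min, in HEPES pH 7.5, 100 mM KCl. The 665/620 TR-FRET ratio was normalized to controls, and IC50 was taken from 4-parameter fits.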

T1 sequence (P06730 whole entry): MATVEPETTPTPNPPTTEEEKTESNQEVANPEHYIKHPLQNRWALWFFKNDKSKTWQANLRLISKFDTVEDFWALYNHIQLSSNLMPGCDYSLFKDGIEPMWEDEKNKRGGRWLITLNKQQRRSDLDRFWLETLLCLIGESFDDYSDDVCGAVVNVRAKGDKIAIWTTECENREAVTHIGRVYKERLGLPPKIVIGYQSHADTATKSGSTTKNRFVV

| Structure (SMILES) | IC50 ([1]; Homo sapiens, Flp-In-293, 24 h) [µM] | IC50 [2] [µM] | IC50 ([3]; Homo sapiens, COLO 205, 72 h) [µM] | IC50 (human eIF4E protein) [µM] | IC50 [1] [µM] | IC50 [3] [µM] | IC50 ([2]; Homo sapiens, COLO 205, 6 h) [µM] |
| --- | --- | --- | --- | --- | --- | --- | --- |
| Cc1cc(-c2cc(Cl)ccc2OCCn2c(C)nc3c(c2=O)CC(N(C)C)CC3)c2scc(C(=O)O)c2n1 (single isomer, unassigned) [Compound 13] | < 1 | < 5 | < 5 | < 0.1 | – | – | – |
| Cc1cc(-c2cc(Cl)ccc2OCCn2c(C)nc3c(c2=O)CC(N(C)C)CC3)c2scc(C(=O)O)c2n1 (single isomer, unassigned) [Compound 14] | – | > 20 | – | < 0.1 | 1 to 5 | 5 to 20 | – |
| CO[C@@H]1CCN([C@@H]2CCc3nc(C)n(CCOc4ccc(Cl)cc4-c4cc(C)nc5c(C(=O)O)csc45)c(=O)c3C2)C1 (single isomer, unassigned) [Compound 42] | < 1 | – | < 5 | < 0.1 | – | – | < 5 |
| Cc1cc(-c2cc(Cl)ccc2OCCn2c(C)nc3c(c2=O)CC(N2CC4COCC4C2)CC3)c2scc(C(=O)O)c2n1 (single isomer, unassigned) [Compound 70] | – | – | – | < 0.1 | < 1 | – | < 5 |
| Cc1cc(-c2cc(Cl)ccc2OCCn2c(C)nc3c(c2=O)CC(N2CCCCC2)CC3)c2scc(C(=O)NS(C)(=O)=O)c2n1 (single isomer, unassigned) [Compound 241] | < 1 | – | < 5 | < 0.1 | – | – | < 5 |
| Cc1cc(-c2cc(Cl)ccc2OCCn2c(C)nc3c(c2=O)CC(N(C)C2(C4CCC4)CC2)CC3)c2scc(C(=O)O)c2n1 (single isomer, unassigned) [Compound 242] | < 1 | – | < 5 | < 0.1 | – | – | < 5 |
| Cc1cc(-c2cc(Cl)ccc2OCCn2c(C)nc3c(c2=O)CC(N(C)C2(C4CCC4)CC2)CC3)c2scc(C(=O)O)c2n1 (single isomer, unassigned) [Compound 243] | – | 5 to 20 | – | < 0.1 | 1 to 5 | 5 to 20 | – |
| Cc1sc2c(-c3cc(Cl)ccc3OCCn3c(C)nc4c(c3=O)CC(N(C)C3CC3)CC4)cn(C)c(=O)c2c1C(=O)O (single isomer, unassigned) [Compound 244] | > 5 | – | > 20 | 0.1 to 0.5 | – | – | > 20 |
| Cc1cc(-c2cc(Cl)ccc2OCCn2c(C)nc3c(c2=O)CC(N2CCCCC2)CC3)c2scc(C(=O)NS(C)(=O)=O)c2n1 (single isomer, unassigned) [Compound 245] | – | 5 to 20 | – | < 0.1 | < 1 | 5 to 20 | – |
| Cc1cc(-c2cc(Cl)ccc2OCCn2c(C)nc3c(c2=O)CC(N(CC2CC(F)(F)C2)C2CC2)CC3)c2scc(C(=O)O)c2n1 (single isomer, unassigned) [Compound 257] | < 1 | – | 5 to 20 | < 0.1 | – | – | 5 to 20 |
| Cc1cc(-c2cc(Cl)ccc2OCCn2c(C)nc3c(c2=O)CC(N(CC2CC(F)(F)C2)C2CC2)CC3)c2scc(C(=O)NS(C)(=O)=O)c2n1 (single isomer, unassigned) [Compound 260] | < 1 | – | < 5 | < 0.1 | – | – | < 5 |
| Cc1cc(-c2cc(Cl)ccc2OCCn2c(C)nc3c(c2=O)CC(N(C)Cc2cncnc2)CC3)c2scc(C(=O)O)c2n1 (stereo not shown) [Compound 187] | – | – | < 5 | < 0.1 | – | – | 5 to 20 |
| Cc1cc(-c2cc(Cl)ccc2OCCn2c(C)nc3c(c2=O)CC(N(C)Cc2ccnnc2)CC3)c2scc(C(=O)O)c2n1 (stereo not shown) [Compound 188] | – | – | > 20 | < 0.1 | – | – | > 20 |
| Cc1cc(-c2cc(Cl)ccc2OCCn2c(C)nc3c(c2=O)CC(N(C)Cc2ncc[nH]2)CC3)c2scc(C(=O)O)c2n1 (stereo not shown) [Compound 190] | – | – | > 20 | < 0.1 | – | – | > 20 |
| Cc1cc(-c2cc(Cl)ccc2OCCn2c(C)nc3c(c2=O)CC(N(C)Cc2ccsc2)CC3)c2scc(C(=O)O)c2n1 (stereo not shown) [Compound 191] | – | – | < 5 | < 0.1 | – | – | < 5 |
| Cc1cc(-c2cc(Cl)ccc2OCCn2c(C)nc3c(c2=O)CC(N2CCC4(CC2)CC4)CC3)c2scc(C(=O)O)c2n1 (stereo not shown) [Compound 192] | – | – | < 5 | < 0.1 | – | – | < 5 |
| Cc1cc(-c2cc(Cl)ccc2OCCn2c(C)nc3c(c2=O)CC(N(C)[C@H]2C[C@](C)(O)C2)CC3)c2scc(C(=O)O)c2n1 (stereo partly shown) [Compound 193] | – | – | > 20 | < 0.1 | – | – | > 20 |
| Cc1cc(-c2cc(Cl)ccc2OCCn2c(C)nc3c(c2=O)CC(N2CCC4(C2)CC(F)(F)C4)CC3)c2scc(C(=O)O)c2n1 (stereo not shown) [Compound 194] | – | – | < 5 | < 0.1 | – | – | < 5 |

| Structure (SMILES) | IC50 ([1]; Homo sapiens, Flp-In-293, 24 h) [µM] | IC50 [2] [µM] | IC50 ([3]; Homo sapiens, COLO 205, 72 h) [µM] | IC50 (human eIF4E protein) [µM] | IC50 [1] [µM] | IC50 [3] [µM] | IC50 ([2]; Homo sapiens, COLO 205, 6 h) [µM] |
| --- | --- | --- | --- | --- | --- | --- | --- |
| Cc1cc(-c2cc(Cl)ccc2OCCn2c(C)nc3c(c2=O)CC(N2CC4(C2)CC(O)(C(F)(F)F)C4)CC3)c2scc(C(=O)O)c2n1 (stereo not shown) [Compound 195] | – | – | > 20 | < 0.1 | – | – | > 20 |
| Cc1cc(-c2cc(Cl)ccc2OCCn2c(C)nc3c(c2=O)CC(N(C)Cc2cccnc2)CC3)c2scc(C(=O)O)c2n1 (stereo not shown) [Compound 196] | – | – | < 5 | < 0.1 | – | – | < 5 |
| Cc1cc(-c2cc(Cl)ccc2OCCn2c(C)nc3c(c2=O)CC(N(C)Cc2cccs2)CC3)c2scc(C(=O)O)c2n1 (stereo not shown) [Compound 197] | – | – | < 5 | < 0.1 | – | – | < 5 |
| Cc1cc(-c2cc(Cl)ccc2OCCn2c(C)nc3c(c2=O)CC(N(C)Cc2ccnc(C(F)(F)F)c2)CC3)c2scc(C(=O)O)c2n1 (stereo not shown) [Compound 198] | – | – | < 5 | < 0.1 | – | – | < 5 |
| Cc1cc(-c2cc(Cl)ccc2OCCn2c(C)nc3c(c2=O)CC(N(C)Cc2cnccn2)CC3)c2scc(C(=O)O)c2n1 (stereo not shown) [Compound 199] | – | – | < 5 | < 0.1 | – | – | < 5 |
| Cc1cc(-c2cc(Cl)ccc2OCCn2c(C)nc3c(c2=O)CC(N(C)Cc2ccccn2)CC3)c2scc(C(=O)O)c2n1 (stereo not shown) [Compound 200] | – | – | < 5 | < 0.1 | – | – | < 5 |
| Cc1cc(-c2cc(Cl)ccc2OCCn2c(C)nc3c(c2=O)CC(N(C)Cc2ccc(C(F)(F)F)cc2)CC3)c2scc(C(=O)O)c2n1 (stereo not shown) [Compound 201, 7-(5-chloro-2-(2-(2-methyl-6-(methyl(4-(trifluoromethyl)benzyl)amino)-4-oxo-5,6,7,8-tetrahydroquinazolin-3(4H)-yl)ethoxy)phenyl)-5-methylthieno[3,2-b]pyridine-3-carboxylic acid] | – | – | < 5 | < 0.1 | – | – | < 5 |
| Cc1cc(-c2cc(Cl)ccc2OCCn2c(C)nc3c(c2=O)CC(N(C)Cc2ncccn2)CC3)c2scc(C(=O)O)c2n1 (stereo not shown) [Compound 202] | – | – | > 20 | < 0.1 | – | – | 5 to 20 |
| Cc1cc(-c2cc(Cl)ccc2OCCn2c(C)nc3c(c2=O)CC(N(C)C2CC4(C2)CC(F)(F)C4)CC3)c2scc(C(=O)O)c2n1 (stereo not shown) [Compound 203] | – | – | < 5 | < 0.1 | – | – | < 5 |
| Cc1cc(-c2cc(Cl)ccc2OCCn2c(C)nc3c(c2=O)CC(N(C)C[C@H]2C[C@@H](C(F)(F)F)C2)CC3)c2scc(C(=O)O)c2n1 (stereo partly shown) [Compound 204] | – | – | < 5 | < 0.1 | – | – | < 5 |
| Cc1cc(-c2cc(Cl)ccc2OCCn2c(C)nc3c(c2=O)CC(N(C)CC24CC(C2)C4)CC3)c2scc(C(=O)O)c2n1 (stereo not shown) [Compound 205] | – | – | < 5 | < 0.1 | – | – | < 5 |
| Cc1cc(-c2cc(Cl)ccc2OCCn2c(C)nc3c(c2=O)CC(N2CCC(OCCO)CC2)CC3)c2scc(C(=O)O)c2n1 (stereo not shown) [Compound 208] | – | – | > 20 | < 0.1 | – | – | > 20 |
| Cc1cc(-c2cc(Cl)ccc2OCCn2c(C)nc3c(c2=O)CC(N2CCC(C)(O)CC2)CC3)c2scc(C(=O)O)c2n1 (stereo not shown) [Compound 209] | – | – | > 20 | < 0.1 | – | – | > 20 |
| Cc1cc(-c2cc(Cl)ccc2OCCn2c(C)nc3c(c2=O)CC(N2CCC4(CC2)CC(O)(C(F)(F)F)C4)CC3)c2scc(C(=O)O)c2n1 (stereo not shown) [Compound 212] | – | – | 5 to 20 | < 0.1 | – | – | 5 to 20 |
| Cc1nc2c(c(=O)n1CCOc1ccc(Cl)cc1-c1ccnc(C(=O)O)c1)CC(N(C)CC1CC(F)(F)C1)CC2 (stereo not shown) [Compound 219] | – | – | > 20 | < 0.1 | – | – | > 20 |
| Cc1cc(-c2cc(Cl)ccc2OCCn2c(C)nc3c(c2=O)CC(N(C)Cc2cccc(OC(F)(F)F)c2)CC3)c2scc(C(=O)O)c2n1 (stereo not shown) [Compound 222] | – | – | < 5 | < 0.1 | – | – | < 5 |
| Cc1cc(-c2cc(Cl)ccc2OCCn2c(C)nc3c(c2=O)CC(N(C)C)CO3)c2scc(C(=O)O)c2n1 (stereo not shown) [Compound 230] | – | – | 5 to 20 | < 0.1 | – | – | 5 to 20 |
